For series [1] the following is noted: bound to proteins on skin, mucosa, mouth tissue and teeth; cited from earlier work.
Series [2] relates to gram-positive and gram-negative bacteria. The conditions noted are these: in vitro; cited from earlier work.
The conditions of series [3]: water, cited from earlier work.
Series [4] has as its system gram-positive and gram-negative bacteria. The conditions noted are these: typical; cited from earlier work.
A further series is described as follows: Solubility in water. The conditions noted are these: inventors' finding for CXC. The class given is physicochemical. The text has this:
Although the biological properties of CX are valuable its engineering properties are somewhat challenging. […] However CX is crystalline, and becomes impermeable when formed into a filter. The impermeability renders the filter properties moot. And even if the filter properties remained intact, the presence of CX in effluent would raise the standard for registration with the EPA and for management of the effluent.
In an effort to resolve that problem, U.S. Pat. No. 7,427,409 discloses use of a hydrate, i.e., CX having 1.3 water molecules per chlorhexidine molecules, and the composition is an amorphous material from which a permeable filter can be manufactured. […] The present invention contemplates use of CXH for any value of n for waters of hydration. However the inventors have discovered an unexpected disadvantage of CXH, namely that a small amount of CXH is eroded from the amorphous solid when fluid passes over or through it and thus exits with the effluent. Any water purifier that allows such emissions must be registered with the EPA as a pesticide, as opposed to a purifier, moreover the maker and/or marketer of the filter would be responsible for the ultimate fate and effects of the CXH after it leaves the filter. Moreover CXH decomposes when heated, and the water of hydration evaporates at 96° C. […]

Read-outs that look alike come from different tables or passages of the source.

Turning to `[H]/N=C(\N/C(=N/[H])NCCCCCCNC(=N)NC(=N)Nc1ccc(Cl)cc1)Nc1ccc(Cl)cc1` [CX, N,N″″1,6-Hexanediylbis[N′-(4-chlorophenyl)(imidodicarbonimidic diamide)]], the persistence of activity in series [1] was ≥ 48 h. Also, the “time to kill virtually all gram-positive and gram-negative bacteria” value in series [2] is ≤ 30 s. The solubility entry in series [3] was “practically insoluble”. Moreover, the “time of uptake of CX into the cells” value in series [4] is ≤ 20 s.

As to `[H]/N=C(\N/C(=N/[H])NCCCCCCNC(=N)NC(=N)Nc1ccc(Cl)cc1)Nc1ccc(Cl)cc1` [CXH, chlorhexidine hydrate], in series [3] (hydrate), the solubility entry is reported as “essentially insoluble”.

For chlorhexidine citrate [CXC], the solubility entry in “Solubility in water” is recorded as “low solubility”.
